Peptide text beside a SMILES is read from it. * marks the point of attachment. Cbz = O=C(OCc1ccccc1)*; CH2F = FC*

One test has as its system BT549. The test is described as follows: SKY analysis of NCCAs after proteasome inhibitor treatment. It is filed as cell-based. Conditions: following treatment. An excerpt:
(§1) Following probe denaturation, hybridization and SKY detection, randomly selected mitotic figures were photographed and analyzed by SKY imaging software. Fifty to hundred SKY images were captured for each cell population to identify commonly shared karyotype features and to reveal the karyotypic diversity of these various cell populations. NCCAs were scored by identifying chromosomal numbers, chromosome translocations/large deletions or other types of abnormality detected within a given mitotic cell. There are two steps needed to score frequencies of NCCAs and CCAs. First, a 4% cutoff line is used to identify any specific recurrent karyotypes or CCAs. The frequency of a CCA is determined by calculating the number of cells displaying the same CCA divided by the total cells examined (50-100). Non-clonal karyotypes (NCCAs) are classified as having a frequency lower than 4%. The total frequencies of NCCAs of a given cell population is then calculated by using all cells displaying NCCAs divided by the total cells examined.
(§2) 5. A comparison of specific and non-specific drugs that target the same pathway: In order to compare directly the effects of challenging the same molecular pathway with specific or nonspecific drug treatments with regard to genome system stability and evolution, the protein degradation pathway was chosen. Two proteasome inhibitors, Bortezomib (also named Velcade or PS-341) and MG132 were used. […] Compared to 132, Bortezomib is more specific. Two breast cancer cell lines, MDA-MB-231 and BT549, were used for this comparison. […] After a few weeks culture, there seemed to be no drastic changes in terms of the formation of new karyotypes.

Another test has as its system MDA-MB-231. The test is described as above. The format is cell-based. The following applies: immediately following treatment.
Text: as §1, §2

The subject of another test is ER stress pathways. The test is described as follows: ER stress agents, western blot and SKY analysis of NCCAs. The format is cell-based. The following applies: for NCCA levels: SKY analysis following a short period of culture; for ER stress pathway activation: western blot analysis following the drug treatment. From the text: The inventors herein then determined to use a more defined stress condition to validate the link between the stress and the genome evolution. Since the endoplasmic reticulum (ER) has an important role in sensing cellular stress, and the ER stress is well studied, the inventors hypothesize that the defined ER stress will also generate elevated NCCAs leading to the formation of new karyotypes. Specific agents were used to target specific pathways of ER stress including tharpsigargin, tunicamycin and DTT. Tunicamycin interferes with glycalation and results in induction of ER stress. Tharpsigargin inhibits the endoplasmic reticulum calcium ATPase, and results in the release of calcium from the ER, and DTT induces reductive stress through its activity in breaking disulfide bonds which leads to induction of the unfolded protein response. […] As illustrated, the specific ER stress pathways were indeed active in three treatments.
A general note: A western blot detects proteins with antibodies after separation by electrophoresis.

Test [1] has as its system cisplatin resistance cell line. The test is described as follows: SKY analysis of NCCAs after Bcl-2 inhibitor treatment. The format is cell-based.
Text: as §1
4. […] To examine this issue, TW-37, a small-molecule inhibitor drug that specifically binds to and inhibits Bcl-2 was used in a cisplatin resistance cell line that was previously tested. Under treatment conditions resulting in 50% cell death, surviving cells of two cell lines were followed with SKY analysis. […]

For test [2], the system named is HCT116 p53−/− cells. The test is described as follows: Mitotic catastrophe model, aphidicolin, scored for chromosome fragmentation. It is filed as cell-based. The following applies: for mitotic fraction: conventional cytogenetic analysis. The protocol: (§3) Induction of mitotic catastrophe. Mitotic catastrophe was induced as herein described. HCT116 14-3-3−/− cells were treated for up to 72 h with 2 μg/mL doxorubicin and HCT116 p53−/−. The cells were treated with 1 μg/mL aphidicolin for up to 96 h and were each harvested every 24 h. Cytogenetic preparations and cytospin preparations were made allowing for chromosomal and morphologic analysis.
(§4) The present mitotic cell death process differs from previously described mitotic catastrophe. Mitotic catastrophe has been loosely defined as cell death that results from aberrant mitoses. […] Not only do the definitions of mitotic catastrophe differ but there is also a lack of morphologic characterization of chromosomes from cells undergoing mitotic catastrophe. […] Cells were induced to undergo mitotic catastrophe according to published reports. Half of the cells were prepared using reported protocols and half were prepared according to standard cytogenetic procedure to score chromosome fragmentation frequency.

Test [3] deals with HCT116 p53−/− cells. Conditions: 72 h, reported; cited from earlier work.
For test [4], the system named is OV433 and TOV112D cell lines. The test is described as follows: Selection of cisplatin resistant clones, karyotypes by SKY. It is filed as cell-based. The following applies: 6-9 months of selection by gradually increased concentrations. As for the experimental part:
3. Less specific targeted drugs can cause karyotypic changes: A well accepted mechanism of drug resistance acquisition is a specific gene mutation linked to a defined molecular pathway such as the cell death pathway, multiple drug resistance pathway or chromosomal machinery that is responsible for genome integrity. In order to test such a mechanism in the context of genome system evolution, well characterized ovarian cancer cell lines were treated with cisplatin, which is a drug commonly used to treat various types of cancers. The mechanism of this drug is thought to be binding and cross-linking of DNA by platinum complexes, which ultimately triggers apoptosis. The mechanisms of cisplatin resistance have been proposed to include changes in cellular uptake, increased detoxification of the drug, inhibition of apoptosis and increased DNA repair.
The karyotypes were examined by SKY and some key pathways possibly related to the acquisition of drug resistance in the clones were analyzed by western blots.

The test system of another test is HCT116 14-3-3−/− cells. The test is described as follows: Mitotic catastrophe model, doxorubicin, scored for chromosome fragmentation. It is filed as cell-based. Conditions: low dose of doxorubicin. The protocol: as §3, §4
A further test has as its system cell population. The test is described as follows: High stress drug treatment, NCCAs and karyotypes. The format is cell-based. Conditions: immediately after treatment of a high dosage. From the text:
First, the same cell line was used with both “high” and “low” levels of stress applied respectively. High stress was applied through chemo-therapy drug treatments (doxorubicin) (Dox) while low stress was generated by altering culture conditions. […] This was illustrated by the drastically altered karyotypes in every cell examined, which persisted until certain karyotypes became dominant (completing the transition from high levels of NCCAs to specific CCAs) following at least 6 weeks of culture in a drug free medium.

A further test relates to mitotic cells. The test is described as follows: Induction of chromosome fragmentation (fragmentation index, cytogenetic scoring). It is filed as cell-based. The protocol: Induction of chromosome fragmentation. After 3 to 8 h treatment of colcemid, mitotic cells were gently shaken off and resuspended in culture medium containing colcemid. Cells were then treated with doxorubicin or methotrexate at 1 μg/mL for various times. Cytogenetic examination. Cells were harvested and cytogenetic slides were prepared using standard protocols. Slides were stained by Giemsa for scoring nuclear structures or stored at −20° C. for further characterization including spectral karyotyping (SKY) and antibody staining. The fragmentation index was determined by dividing the number of cells displaying chromosome fragmentation by the total number of mitotic cells, including cells undergoing chromosome fragmentation.

A further test deals with HCT116 cells. The test is described as follows: Caspase inhibition during induced chromosome fragmentation. It is filed as cell-based. Conditions: pretreatment with z-vad-fmk, then colcemid and doxorubicin, 6 and 12 h. As for the experimental part:
Cytogenetic examination. Cells were harvested and cytogenetic slides were prepared using standard protocols. Slides were stained by Giemsa for scoring nuclear structures or stored at −20° C. for further characterization including spectral karyotyping (SKY) and antibody staining. The fragmentation index was determined by dividing the number of cells displaying chromosome fragmentation by the total number of mitotic cells, including cells undergoing chromosome fragmentation.
Caspase inhibition. Caspase activity was inhibited by treatment of HCT116 cells for 12 h with […] z-vad-fmk followed induction of chromosome fragmentation (by concurrent treatment with colcemid and 1 μg/mL doxorubicin) for 6 or 12 h in the presence of or after removal of z-vad-fmk. Following treatment, cytogenetic slides were made and scored.

The next test deals with T1, caspase-3 (Homo sapiens, UniProt P42574).
T1 construct: endogenous in cells; host or cells: HCT116
T1 sequence (P42574 29-175 limits assumed): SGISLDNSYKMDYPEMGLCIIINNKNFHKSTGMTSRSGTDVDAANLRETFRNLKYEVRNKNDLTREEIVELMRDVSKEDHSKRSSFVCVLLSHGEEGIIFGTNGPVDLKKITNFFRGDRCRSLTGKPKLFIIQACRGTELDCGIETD
T1 sequence (P42574 176-277 limits assumed): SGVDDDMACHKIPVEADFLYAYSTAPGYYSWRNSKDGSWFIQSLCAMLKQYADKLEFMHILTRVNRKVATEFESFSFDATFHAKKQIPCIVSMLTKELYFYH
The test is described as follows: Caspase-3 colorimetric activity assay. The format is cell-based. Conditions: 20 μmol/L, cells treated with colcemid and doxorubicin. The protocol:
Caspase-3 activity. Caspase-3 activity was measured using the caspase-3 colorimetric assay kit from R&D Systems as herein described. HCT116 cells were treated for 8 h with colcemid with and without z-vad-fmk. Mitotic cells were then shaken off and treated with doxorubicin for an additional 6 h and 12 h.

In the case of `CC(C)C[C@H](NC(=O)[C@H](Cc1ccccc1)NC(=O)c1cnccn1)B(O)O` [Bortezomib], the NCCA frequencies result in the test with BT549 was “failed to generate increased NCCA frequencies”. The NCCAs entry with MDA-MB-231 is given as “showed an increase in NCCAs”.

`O[C@@H](CS)[C@@H](O)CS` [DTT]: in the test with ER stress pathways, the NCCA levels result is “elevated NCCAs were observed” and the “ER stress pathway activation” value is on record as “indeed active”.

For the compound `CC(C)C[C@@H](C=O)NC(=O)[C@H](CC(C)C)NC(=O)[C@H](CC(C)C)NC(=O)OCc1ccccc1` [MG132] (Cbz-Leu-Leu-Leu-aldehyde), in the test with BT549, the NCCA frequencies result is given as “failed to generate increased NCCA frequencies”. Further, the NCCAs entry in the test on MDA-MB-231 was “showed an increase in NCCAs”.

`CC(C)c1ccccc1Cc1cc(C(=O)Nc2ccc(S(=O)(=O)c3ccccc3C(C)(C)C)cc2)c(O)c(O)c1O` [TW-37]: in [1] (after a few weeks of culture), the “formation of new karyotypes” value was “new stable karyotypes were detected”. Moreover, the “frequencies of NCCAs” value in [1] (treatment conditions resulting in 50% cell death, surviving cells of two cell lines) was “increased”.

Regarding `C[C@@]1(CO)[C@H](O)CC[C@@]2(C)[C@H]1CC[C@H]1C[C@@H]3C[C@@]12CC[C@]3(O)CO` [aphidicolin], the figures for the mitotic fraction in the test on HCT116 p53−/− cells [2] (72 h) and in the test with HCT116 p53−/− cells [2] (96 h) were 3.2% and 5.4%, respectively. The chromosome breaks entry with HCT116 p53−/− cells [2] (96 h) is given as “evident in the majority of chromosome spreads”. Also, the cells died with HCT116 p53−/− cells [3] was 40%.

On to `N.N.[Cl][Pt][Cl]` [cisplatin], for which the “karyotypes of drug resistant clones” value in [4] was “drastically different karyotypes”.

For the compound `COc1cccc2c1C(=O)c1c(O)c3c(c(O)c1C2=O)C[C@@](O)(C(=O)CO)C[C@@H]3O[C@H]1C[C@H](N)[C@H](O)[C@H](C)O1` [doxorubicin], in the test on HCT116 14-3-3−/− cells, the “phosphorylated H3 staining” value is “only a very small fraction of cells show any positive signal”. Moreover, in the test on HCT116 14-3-3−/− cells (conventional cytogenetic protocols), the chromosome fragmentation entry is “chromosome fragmentation was not evident”. Besides, the “level of NCCAs” value in the test on cell population is listed as “a high level of NCCAs was quickly detected”. In addition, the “induction of chromosome fragmentation” value in the test on mitotic cells was “can induce chromosome fragmentation”. The “chromosome fragmentation in interphase cells” value in the test on mitotic cells (interphase cells, doxorubicin and colcemid preceded by a double thymidine block, up to 24 h) is given as “no chromosome fragmentation was observed”. Moreover, the “mitotic cells showing a degree of chromosome fragmentation” value in the test with mitotic cells (mitotic shake-off cells arrested with colcemid, concurrent doxorubicin, within 12 h) is listed as approximately 100%.

As for `CN(Cc1cnc2nc(N)nc(N)c2n1)c1ccc(C(=O)N[C@@H](CCC(=O)O)C(=O)O)cc1` [methotrexate], in the test with mitotic cells, the “induction of chromosome fragmentation” value is “can induce chromosome fragmentation”.

For the compound `COC(=O)C[C@H](NC(=O)[C@H](C)NC(=O)[C@@H](NC(=O)OCc1ccccc1)C(C)C)C(=O)CF` [z-vad-fmk] (Cbz-Val-Ala-Asp(OMe)-CH2F), the “chromosome fragmentation frequency upon caspase inhibition” value in the test with HCT116 cells is “not significantly altered”. Also, the caspase-3 reactivity entry on caspase-3 was “largely inhibited”.

Consider tharpsigargin, for which, in the test on ER stress pathways, the NCCA levels result is given as “elevated NCCAs were observed” and the “ER stress pathway activation” value is recorded as “indeed active”.

With tunicamycin, in the test on ER stress pathways, the NCCA levels entry is “elevated NCCAs were observed” and the “ER stress pathway activation” value is reported as “indeed active”.

These data come from US20100233701A1, “Use of non-clonal chromosomal aberrations for cancer research and clinical diagnosis” (priority 2008, published 2010).
